Assay results published in patent publication US20230293526A1, “METHOD FOR TREATING CANCER WITH A REVERSE TRANSCRIPTASE INHIBITOR” (PrimeFour Therapeutics, Inc., priority 2020, published 2023).

How the values were obtained:
Experiment in all cases: Cell proliferation Ex.3
Type in all cases: cell-based
PBMC = tested on: PBMC
PC3 = settings: Homo sapiens, PC-3
Method: (§1) A dose response relationship on cell proliferation was assessed for Compound 13 on 140 tumor cell lines. […] Cells were cultured in the appropriate media. For the assays, cells were seeded in white cell culture-treated flat and clear bottom multiwell plates and incubated at 37° C. overnight before compound was added. […] on the medium, cell plates were equilibrated to room temperature for one hour, CellTiterGlo reagent (Promega) was added and luminescence was measured approximately an hour later using a luminometer. Raw data were converted into percent cell viability relative to the high and low control, which were set to 10000 and 000, respectively.

UMUC3 = settings: Homo sapiens
Method: as §1

EFO21 = settings: Homo sapiens, EFO-21
Method: as §1

PLCPRF5 = settings: Homo sapiens, PLC-PRF-5
Method: as §1

CLS439 = tested on: CLS439
Method: as §1

SKMEL5 = settings: Homo sapiens, SK-MEL-5
Method: as §1

SAOS2 = settings: Homo sapiens, SAOS-2
Method: as §1

A431 = settings: Homo sapiens, A-431
Method: as §1

A673 = settings: Homo sapiens
Method: as §1

JEG3 = settings: Homo sapiens, JEG-3
Method: as §1

WSU-NHL = settings: Homo sapiens
Method: as §1

DLD1 = settings: Homo sapiens, DLD-1
Method: as §1

NCIH82 = settings: Homo sapiens, NCI-H82
Method: as §1

MIAPACA2 = settings: Homo sapiens, MIA PaCa-2
Method: as §1

PANC1005 = settings: Homo sapiens
Method: as §1

SNB75 = settings: Homo sapiens, SNB-75
Method: as §1

A375 = settings: Homo sapiens, A-375
Method: as §1

TE671 = settings: Homo sapiens, TE-671
Method: as §1

IMR90 = settings: Homo sapiens, IMR-90
Method: as §1

MDAMB231 = settings: Homo sapiens, MDA-MB-231
Method: as §1

MINO = settings: Homo sapiens
Method: (§2) A dose response relationship on cell proliferation was assessed for Compound 13 on 140 tumor cell lines. […] Cells were cultured in the appropriate media. For the assays, cells were seeded in white cell culture-treated flat and clear bottom multiwell plates and incubated at 37° C. overnight before compound was added. […] dependent on the medium, cell plates were equilibrated to room temperature for one hour, CellTiterGlo reagent (Promega) was added and luminescence was measured approximately an hour later using a luminometer. Raw data were converted into percent cell viability relative to the high and low control, which were set to 10000 and 000, respectively.

SKNSH = settings: Homo sapiens, SK-N-SH
Method: as §2

CASKI = settings: Homo sapiens, Ca-Ski
Method: as §2

For `C#C[C@]1(CO)O[C@@H](n2cc(F)c(N)nc2=O)C[C@@H]1O` [compound 9], the IC50 (PBMC; 72 h) was > 10 µM, the IC50 (PBMC; 120 h) was > 10 µM and the IC50 (PBMC; 168 h) was > 10 µM. The IC50 (PC3; PC3, 72 h) was > 10 µM, the IC50 (PC3; PC3, 120 h) was > 10 µM and the IC50 (PC3; PC3, 168 h) was > 10 µM. The IC50 (UMUC3; UMUC3, 72 h) was > 10 µM, the IC50 (UMUC3; UMUC3, 120 h) was > 10 µM and the IC50 (UMUC3; UMUC3, 168 h) was > 10 µM. The IC50 (EFO21; EFO21, 72 h) was > 10 µM, the IC50 (EFO21; EFO21, 120 h) was > 10 µM and the IC50 (EFO21; EFO21, 168 h) was > 10 µM. For the same molecule, the IC50 (PLCPRF5; PLCPRF5, 72 h) was > 10 µM, the IC50 (PLCPRF5; PLCPRF5, 120 h) was > 10 µM and the IC50 (PLCPRF5; PLCPRF5, 168 h) was > 10 µM. The IC50 (CLS439; CLS439, 72 h) was > 10 µM, the IC50 (CLS439; CLS439, 120 h) was > 10 µM and the IC50 (CLS439; CLS439, 168 h) was > 10 µM. For the same molecule, the IC50 (SKMEL5; SKMEL5, 72 h) was > 10 µM, the IC50 (SKMEL5; SKMEL5, 120 h) was > 10 µM and the IC50 (SKMEL5; SKMEL5, 168 h) was > 10 µM. For the same molecule, the IC50 (SAOS2; SAOS2, 72 h) was > 10 µM, the IC50 (SAOS2; SAOS2, 120 h) was > 10 µM and the IC50 (SAOS2; SAOS2, 168 h) was > 10 µM. For the same molecule, the IC50 (A431; A431, 72 h) was > 10 µM, the IC50 (A431; A431, 120 h) was 3.18 µM and the IC50 (A431; A431, 168 h) was 1.42 µM. The IC50 (A673; A673, 72 h) was > 10 µM, the IC50 (A673; A673, 120 h) was > 10 µM and the IC50 (A673; A673, 168 h) was > 10 µM. The IC50 (JEG3; JEG3, 72 h) was > 10 µM, the IC50 (JEG3; JEG3, 120 h) was > 10 µM and the IC50 (JEG3; JEG3, 168 h) was > 10 µM. For the same molecule, the IC50 (WSU-NHL; 72 h) was 3.01 µM, the IC50 (WSU-NHL; 120 h) was 0.42 µM and the IC50 (WSU-NHL; 168 h) was 0.87 µM. For the same molecule, the IC50 (DLD1; DLD1, 72 h) was > 10 µM, the IC50 (DLD1; DLD1, 120 h) was > 10 µM and the IC50 (DLD1; DLD1, 168 h) was > 10 µM. For the same molecule, the IC50 (NCIH82; NCIH82, 72 h) was > 10 µM, the IC50 (NCIH82; NCIH82, 120 h) was 9.1 µM and the IC50 (NCIH82; NCIH82, 168 h) was > 10 µM. The IC50 (MIAPACA2; MIAPACA2, 72 h) was > 10 µM, the IC50 (MIAPACA2; MIAPACA2, 120 h) was > 10 µM and the IC50 (MIAPACA2; MIAPACA2, 168 h) was > 10 µM. For the same molecule, the IC50 (PANC1005; Panc1005, 72 h) was > 10 µM, the IC50 (PANC1005; Panc1005, 120 h) was > 10 µM and the IC50 (PANC1005; Panc1005, 168 h) was > 10 µM. The IC50 (SNB75; SNB75, 72 h) was > 10 µM, the IC50 (SNB75; SNB75, 120 h) was > 10 µM and the IC50 (SNB75; SNB75, 168 h) was > 10 µM. For the same molecule, the IC50 (A375; A375, 72 h) was > 10 µM, the IC50 (A375; A375, 120 h) was > 10 µM and the IC50 (A375; A375, 168 h) was > 10 µM. For the same molecule, the IC50 (TE671; TE671, 72 h) was > 10 µM, the IC50 (TE671; TE671, 120 h) was > 10 µM and the IC50 (TE671; TE671, 168 h) was > 10 µM. For the same molecule, the IC50 (IMR90; IMR90, 72 h) was > 10 µM, the IC50 (IMR90; IMR90, 120 h) was > 10 µM and the IC50 (IMR90; IMR90, 168 h) was > 10 µM. The IC50 (MDAMB231; MDAMB231, 72 h) was > 10 µM, the IC50 (MDAMB231; MDAMB231, 120 h) was > 10 µM and the IC50 (MDAMB231; MDAMB231, 168 h) was > 10 µM. It also gave an IC50 (MINO; 72 h) of 0.34 µM, an IC50 (MINO; 120 h) of 0.049 µM and an IC50 (MINO; 168 h) of 0.065 µM. For the same molecule, the IC50 (SKNSH; 72 h) was > 10 µM, the IC50 (SKNSH; 120 h) was > 10 µM and the IC50 (SKNSH; 168 h) was > 10 µM. For the same molecule, the IC50 (CASKI; 72 h) was > 10 µM, the IC50 (CASKI; 120 h) was > 10 µM and the IC50 (CASKI; 168 h) was > 10 µM.
